Data from the SangsterLogP compilation.

experiment: not given; conditions: not given

First: CNC(=O)Oc1ccccc1OC(C)C
Second: CNC(=O)Oc1ccc(C)c(C)c1
The logP of the first is lower: 1.99 for the first, 2.25 for the second.

First: CNC(=O)Oc1cc(C)cc(C)c1
Second: Cc1ccccc1C(=O)Nc1cccc(OC(C)C)c1
The logP of the first is lower: 2.38 for the first, 3.5 for the second.

With N#Cc1c(Cl)c(Cl)c(Cl)c(C#N)c1Cl the logP was 3.8.

experiment: method code SF-AS, from DOI: 10.1021/je700381u; conditions: pH 0.0

Going from O=C(O)c1ccc(Cl)cc1F to O=C(O)c1ccc(Br)cc1F, the logD rises from 2.28 to 2.67.

Compared with O=C(O)c1cc(Br)ccc1F, O=C(O)c1cc(Br)ccc1Cl is lower in logD: 3.43 for the first, 3.16 for the second.

In the case of O=C(O)c1ccc(F)cc1Cl, the logD was 2.63.

experiment: method code SF-AS, from Frater-Schröder, M.; Alder, S.; Zbinden, G. (1976). Neurotoxic effects of pyridoxine and analogs in rats. Proc. Eur. Soc. Toxicol, 17, 277-284.; conditions: pH 7.4

First: CCCCOCc1c(CO)cnc(C)c1O
Second: Cc1ncc(CO)c(COCCC(C)C)c1O
The logD of the first is higher: 1.34 for the first, 0.83 for the second.

First: Cc1ncc(CO)c2c1OC1=CCCCC1=C2
Second: Cc1ncc(CO)c(Cc2ccc(N(C)C)cc2)c1O
The logD of the first is higher: 1.98 for the first, 0.81 for the second.

For CCCCN(CCCC)Cc1c(CO)cnc(C)c1O, the logD was 1.69.

experiment: method code SF-AS, from PMID: 8197227; conditions: pH 7.4

Going from NC(=S)NNCc1ccc2c(c1)OCO2 to c1csc(NNCc2ccc3c(c2)OCO3)n1, the logD rises from 0.14 to 1.8.

NC(=S)N/N=C\c1ccc2c(c1)OCO2 and Cc1csc(NN=Cc2ccc3c(c2)OCO3)n1 are within 0.2 log units of each other in logD: 1.4 for the first, 1.5 for the second.

Work on O=C(NNc1nc(-c2ccccc2)cs1)c1ccc2c(c1)OCO2 yielded a logD of 2.14.

experiment: method code SF-GLC, from DOI: 10.1080/03086648508073361; conditions: not given

Going from CN(C)P(=O)(N1CCCC1)N1CCCC1 to O=P(N1CCCC1)(N1CCCC1)N1CCCC1, the logP falls from 1.88 to 1.67.

Compared with CCN(CC)P(=O)(N(CC)CC)N(CC)CC, CN(C)P(=O)(N(C)C)N1CCCC1 is lower in logP: 2.53 for the first, 0.82 for the second.

Work on CN(C)P1(=O)N(C)CCN1C yielded a logP of 0.02.

experiment: method code SF-AS, from DOI: 10.1002/etc.5620180606; conditions: not given

Going from CC(=O)CCC(C#N)Nc1ccc(N=Nc2nc3ccc([N+](=O)[O-])cc3s2)cc1 (centres undefined) to Cc1c(O)c(C#N)c(C)c(N=Nc2ccc(Cl)c(Cl)c2)c1O, the logP falls from 4.08 to 3.74.

Going from O=[N+]([O-])c1cc(S(=O)(=O)Nc2ccccc2)ccc1Nc1ccccc1 to COc1cc(/N=N/c2c(Br)cc([N+](=O)[O-])cc2[N+](=O)[O-])c(NC(C)=O)cc1N(CCOC(C)=O)CCOC(C)=O, the logP rises from 3.62 to 4.44.

experiment: method code SF-AS, from DOI: 10.1021/jm00163a043, PMID: 2153206; conditions: pH 7.0

First: Cc1cn([C@H]2CC[C@@H](CO)O2)c(=O)[nH]c1=S
Second: O=c1[nH]c(=S)ccn1[C@H]1CC[C@@H](CO)O1
The logD of the first is higher: 0.44 for the first, -0.21 for the second.

First: Nc1ccn(C2CC(O)C(CO)O2)c(=O)n1 (centres undefined)
Second: Nc1ccn([C@H]2C=C[C@@H](CO)O2)c(=O)n1
The logD of the first is lower: -1.62 for the first, -0.7 for the second.

For Cc1cn([C@H]2C[C@H](O)[C@@H](CO)O2)c(=O)[nH]c1=S, the logD was -0.07.

experiment: method code SF, from DOI: 10.1016/j.bcp.2004.09.021, PMID: 15627482; conditions: pH 7.0

First: CCCCOC(=O)C1(CCCC)CCC=[N+]1[O-] (centres undefined)
Second: CCCCC1(C(=O)OCC)CCC=[N+]1[O-] (centres undefined)
The logD of the first is higher: 1.75 for the first, 0.69 for the second.

Compared with CCCCC1(C(=O)OC(C)(C)C)CCC=[N+]1[O-] (centres undefined), CCCCC1(C(=O)OC(C)C)CCC=[N+]1[O-] (centres undefined) is lower in logD: 1.36 for the first, 1.07 for the second.

Compound CCCCC1(C(=O)OCC)C(CC)C(C)C=[N+]1[O-] (centres undefined) has a logD of 1.01.

experiment: method code SF, from DOI: 10.1016/0378-5173(85)90102-4; conditions: pH 8.0

First: CCN(CC)[C@@H](C)C(=O)OCn1ncc2c(=O)[nH]cnc21 (racemic)
Second: CC(C)C[C@H](N)C(=O)OCn1ncc2c(=O)[nH]cnc21
The logD of the first is higher: 0.72 for the first, 0.19 for the second.

Compared with CN(C)CC(=O)OCn1ncc2c(=O)[nH]cnc21, CCCN(CCC)CC(=O)OCn1ncc2c(=O)[nH]cnc21 is higher in logD: -0.49 for the first, 1.27 for the second.

With NC(C(=O)OCn1ncc2c(=O)[nH]cnc21)c1ccccc1 (centres undefined) the logD was -0.15.

experiment: method code SF-AS, from DOI: 10.1139/cjpp-75-12-1362, PMID: 9534947; conditions: not given

COc1ccc(C(=O)N/N=C\c2c(O)ccc3ccccc23)cc1 and O=C(N/N=C/c1c(O)ccc2ccccc12)c1ccc(O)cc1 are within 0.2 log units of each other in logP: 4.06 for the first, 3.95 for the second.

O=C(N/N=C/c1c(O)ccc2ccccc12)c1ccc([N+](=O)[O-])cc1 and O=C(N/N=C/c1c(O)ccc2ccccc12)c1ccco1 are within 0.2 log units of each other in logP: 3.58 for the first, 3.41 for the second.

Work on CC(=O)N/N=C/c1c(O)ccc2ccccc12 yielded a logP of 2.91.

experiment: not given; conditions: not given; remark: another data set of the same source

Clc1cc2c(Cl)cccc2c(Cl)c1Cl and Clc1cc2c(Cl)ccc(Cl)c2cc1Cl are within 0.2 log units of each other in logP: 5.77 for the first, 5.81 for the second.

First: Clc1ccc2cc(Cl)c(Cl)cc2c1
Second: Clc1ccc2ccccc2c1Cl
The logP of the first is higher: 5.12 for the first, 4.42 for the second.

Compound Clc1c(Cl)c(Cl)c2c(Cl)c(Cl)c(Cl)c(Cl)c2c1Cl has a logP of 6.42.

experiment: method code SF, from DOI: 10.1034/j.1399-3011.2003.00037.x, PMID: 12492901; conditions: pH 2.0

First: CCCC[C@H](Nc1ccc([N+](=O)[O-])cc1[N+](=O)[O-])C(=O)O
Second: CCCC(Nc1ccc([N+](=O)[O-])cc1[N+](=O)[O-])C(=O)O (racemic)
The logD of the first is higher: 3.25 for the first, 2.88 for the second.

Going from C[C@H](Nc1ccc([N+](=O)[O-])cc1[N+](=O)[O-])C(=O)O to CC(=O)N[C@@H](Cc1ccccc1)C(=O)O, the logD falls from 2.09 to 0.4.

same assay, conditions: pH 11.0

Work on CC(=O)NC(Cc1c[nH]c2ccccc12)C(N)=O (centres undefined) yielded a logD of 0.16.

experiment: not given; conditions: not given; remark: another data set of the same source

O=C(O)c1cc([N+](=O)[O-])ccc1Cl and O=C(O)c1ccc([N+](=O)[O-])cc1Cl are within 0.2 log units of each other in logP: 2.13 for the first, 2.19 for the second.

Compared with O=[N+]([O-])c1cc(-c2ccccc2)ccc1Br, N#Cc1ccc(O)cc1 is lower in logP: 4.82 for the first, 1.28 for the second.

In the case of OCc1ccc(Cl)cc1, the logP was 1.99.

experiment: method code SF, from DOI: 10.1021/jm9405147, PMID: 8576915; conditions: not given

Going from CC1=C(N2CC2)C(=O)C(CCOC(N)=O)=C(N2CC2)C1=O to CC1=C(N2CC2)C(=O)C(Br)=C(N2CC2)C1=O, the logP rises from 0.16 to 1.36.

First: NC1=C(Cl)C(=O)c2ccccc2C1=O
Second: NC1=CC(=O)c2ccccc2C1=O
The logP of the first is higher: 2.08 for the first, 1.77 for the second.

CC1=C(N2CC2)C(=O)C(Cl)=C(N2CC2)C1=O gave a logP of 1.2.

experiment: method code SF-AS, from DOI: 10.1111/j.2042-7158.1989.tb06384.x, PMID: 2576447; conditions: pH 7.4

Going from CCCCn1c(=O)n(C)c(=O)c2nc[nH]c21 to CCn1c(=O)n(C)c(=O)c2nc[nH]c21, the logD falls from 1.29 to 0.52.

Compared with CCCn1c(=O)[nH]c(=O)c2nc[nH]c21, CCCCn1c(=O)[nH]c(=O)c2nc[nH]c21 is higher in logD: 0.33 for the first, 0.84 for the second.

CCn1c(=O)[nH]c(=O)c2nc[nH]c21 gave a logD of -0.11.

experiment: method code pH-metric titration, from DOI: 10.1002/(sici)1096-9063(199607)47:3<265::aid-ps416>3.0.co;2-f; conditions: not given

CC(Oc1ccc(Oc2ccc(C(F)(F)F)cn2)cc1)C(=O)O (centres undefined) and CC(C(=O)O)N(C(=O)c1ccccc1)c1ccc(F)c(Cl)c1 (racemic) are within 0.2 log units of each other in logP: 3.18 for the first, 3.09 for the second.

Work on CN1CCC[C@H]1c1cccnc1 yielded a logP of 0.93.

same assay, conditions: pH 2.7

Compound CC(C)C1(C)N=C(c2ncccc2C(=O)O)NC1=O (centres undefined) has a logD of 0.22.

same assay, conditions: pH 9.0

CC(Cc1ccc(C(C)(C)C)cc1)CN1C[C@@H](C)O[C@@H](C)C1 (some centres undefined) showed a logD of 4.93.

experiment: not given; conditions: not given; remark: another data set of the same source

COC(=O)CCC1=CC2(CCC(=O)OC)OOC1(C)c1ccccc12 (centres undefined) and COC(=O)CCC12C=CC(CCC(=O)OC)(OO1)c1ccccc12 are within 0.2 log units of each other in logP: 2.06 for the first, 2.08 for the second.

Compared with CC12C=CC(CCS(N)(=O)=O)(OO1)c1ccccc12 (centres undefined), CC12C=CC(CCC(=O)O)(OO1)c1ccccc12 (centres undefined) is lower in logP: 1.66 for the first, 1.19 for the second.

Compound COC(=O)CCC12C=CC(C)(OO1)c1ccccc12 (centres undefined) has a logP of 2.13.

experiment: not given; conditions: not given; remark: another data set of the same source

Ic1ccc2nc(-c3ccc(-c4nccs4)cc3)cn2c1 and Ic1ccc2nc(-c3ccc(-c4ncon4)cc3)cn2c1 are within 0.2 log units of each other in logP: 3.06 for the first, 3.12 for the second.

First: CN(C)c1ccc(-c2cn3cc(I)ccc3n2)cc1
Second: Ic1ccc2nc(-c3ccc(-c4cnco4)cc3)cn2c1
The logP of the first is higher: 4.03 for the first, 3.64 for the second.

Compound Ic1ccc2nc(-c3ccc(-c4cc[nH]n4)cc3)cn2c1 has a logP of 3.2.

experiment: method code SF-AS, from DOI: 10.1016/0048-3575(87)90152-0; conditions: not given

COC(=O)C(c1ccccc1)C(C)C (centres undefined) and CCOC(C(=O)OCc1ccccc1)C(C)C (centres undefined) are within 0.2 log units of each other in logP: 3.33 for the first, 3.29 for the second.

CC(C)CC(=O)Oc1ccccc1 and CC(C)CC(=O)OCc1ccccc1 are within 0.2 log units of each other in logP: 3.18 for the first, 3.26 for the second.

Compound CC(C)[C@H](Nc1ccccc1)C(=O)OCc1ccccc1 has a logP of 4.41.

experiment: not given; conditions: not given; remark: another data set of the same source

Going from O=c1oc2cc(O)ccc2c2oc3cc(O)ccc3c12 to COc1ccc([C@@H]2COc3cc(O)ccc3C2)c(OC)c1, the logP rises from 2.69 to 3.21.

First: CC1(C)C=Cc2cc3c(cc2O1)OC1c2ccc(O)cc2OCC31O (centres undefined)
Second: COc1ccc2c(c1)OCc1c-2oc2cc3c(cc12)C=CC(C)(C)O3
The logP of the first is lower: 2.62 for the first, 3.18 for the second.

For Oc1ccc2c(c1)OC[C@H]1c3cc4c(cc3O[C@@H]21)OCO4, the logP was 2.61.
